This is an account of results in article PMC3816707, “Diamidines versus Monoamidines as Anti-Pneumocystis Agents: An in vivo Study” (Pharmaceuticals, 2013).

Data set [1] in a line: In vitro cytotoxicity, MTT-based cell viability assay. Also on record: species or system murine. The settings on record: mouse, 3T6 embryonal fibroblast cells (adherent); 3T6 murine embryonal fibroblast cell line, MTT, triplicate, mean. The protocol: (§1) In vitro cytotoxicity assays with established cell lines are useful tools for the general screening of chemicals in toxicological studies. […] The procedure, according to the manufacturer recommendations, was based on the colorimetric determination of the succinate dehydrogenase activity by visualization (540 nm) of the conversion of a tetrazolium salt into formazan. With a microplate reader (Thermo Labsystems Multiskan Ascent 354, Waltham, MA, USA), the optical density of each well was measured at 540 nm against the background absorbance whose reference filter was set at 690 nm. Blank controls (culture medium), free-drug controls, and solvent (DMSO) controls were included in each assay. All cytotoxicity assays were set up in triplicate. […] The IC50 parameters were obtained by plotting % inhibition values against the logarithm of concentration for each compound.
(§2) For each compound, the % inhibition of activity against the concentration scale was plotted. The 50% inhibiting concentrations of cell proliferation (IC50) were calculated by locating the x-axis values corresponding to one-half of the absorbance values. The experiments were repeated in triplicate for each substance.

Data set [2] relates to Pneumocystis carinii. Kind of data set: In vivo anti-Pneumocystis activity, P. carinii pneumonia in nude rats. Also on record: species or system athymic Lou nu/nu rats. The settings on record: for % of inhibition versus control rats: once a day for 10 days, P. carinii count in lung homogenates; for In vivo anti-Pneumocystis activity: subcutaneous, 5 and 20 mg/kg/day, 10 days. The protocol:
To evaluate the in vivo anti-Pneumocystis activity, drug stock solutions in DMSO (300 mg/mL) were diluted in phosphate buffered saline (PBS, BioWhittaker) to produce the required final drug concentrations just before subcutaneous injection. Seven weeks p.i., animals were divided into groups of 4, and then pentamidine and derivatives 4 and 6 were dosed at 5 or 20 mg/kg by subcutaneous route. The drugs were given once a day for 10 consecutive days. The final concentration of DMSO in diluted drug solutions was maintained between 1.5% and 6%. Control animals received doses of 6%-DMSO in sterile water. Twenty-four hours after the end of the treatment, animals were euthanatized and the lung homogenised in a Stomacher-400 blender as previously described. Quantitation of trophic forms, sporocytes, and cysts was performed on air-dried smears stained with RAL-555 stain [34, 37, 38]. Therapeutic efficacy was assessed by counting P. carinii parasites in lung homogenates and comparing them with those of the untreated controls at the end of the experiment. The results were expressed as percentage of inhibition versus drug-free animal controls and presented as mean and standard error. Data were analyzed using a two-way analysis of variance (PROC MIXED, SAS Institute, Cary, NC, USA), with sex, drug, and their interaction as independent predictors. Due to heterogeneity in parasites count distributions, the first step of the analysis was the selection of the within-subject covariance, based either on likelihood ratio tests or on the Bayesian Information Criterion. Then, tests of the fixed effects were performed. No interaction was found between sex and drug. Therapeutic efficacy was assessed with polynomial contrasts. Regression underlying assumptions were visually inspected with residual plots. Statistical significance was set at α = 0.05.
An in vivo experiment was performed in order to explore whether it reflected in vitro results. The used in vivo model was the athymic Pneumocystis-free Lou nu/nu rats non-surgically inoculated by endo-tracheal route with a suspension of P. carinii organisms. […] Rats developed high infection levels 6–8 weeks post inoculation without secondary fungal or bacterial infection. […] Thus animals were endotracheally infected after 2 weeks of dexamethasone administration (1 mg/L, drinking water) with 10^7 P. carinii organisms. Drugs were administered once a day by subcutaneous route for 10 consecutive days. Untreated animals developed extensive infections at the end of the treatment period. The number of total P. carinii organisms per lung in DMSO control rats was 1.26 ± 0.20 × 10^10. […] On the other hand, whereas showing a strong anti-Pneumocystis activity in vitro, the monoamidine 7 appeared to be poorly potent when administered subcutaneously to Pneumocystis-infected rats, even at the dose of 20 mg/kg/day.

Data set [3] in a line: Visual observations of treated rats (behavior, injection site). The conditions noted are these: for Cutaneous reaction at the site of injections: subcutaneous treatment, data not shown. In kind it is in vivo, rat.
For data set [4], the system named is Pneumocystis carinii. Kind of data set: In vitro anti-Pneumocystis activity, P. carinii axenic short culture (4 days). The conditions noted are these: for inhibition of growth at 50 µg/mL / inhibition of growth at 0.1 µg/mL / inhibition of growth at 10 µg/mL / EC50: Pneumocystis carinii, 96 h; for inhibition of growth at 50 µg/mL / Anti-Pneumocystis activity % inhibition vs. free-drug control at 0.1 µg/mL / Anti-Pneumocystis activity % inhibition vs. free-drug control at 10 µg/mL / Anti-Pneumocystis activity % inhibition vs. free-drug control at 50 µg/mL: 4 days axenic culture; for inhibition of growth at 50 µg/mL: read-out: Anti-Pneumocystis activity % inhibition vs. free-drug control at 50 µg/mL; for inhibition of growth at 0.1 µg/mL: read-out: Anti-Pneumocystis activity % inhibition vs. free-drug control at 0.1 µg/mL, 0.1 µg/mL, 4 days axenic culture; for inhibition of growth at 10 µg/mL: read-out: Anti-Pneumocystis activity % inhibition vs. free-drug control at 10 µg/mL, 10 µg/mL, 4 days axenic culture; for EC50: 150 to 1.35 10^-5 µM, read-out: EC50 against P. carinii. In kind it is cell-based. The procedure: Drug stock solutions in DMSO (10 mg/mL) were diluted in Dulbecco's Modified Eagle's Medium (DMEM, BioWhittaker) supplemented with 10% heat-inactivated foetal calf serum (FCS, Gibco-BRL) to produce the required drug concentrations. P. carinii axenic short cultures were performed as follows. All the experiments were carried out in 24-well plates with a final volume of 2 mL of DMEM supplemented with 10% of heat-inactivated fetal calf serum (FCS) containing a final inoculum of 10^6 organisms per mL. Plates were incubated for 4 days in an atmosphere of 5% CO2 at 37 °C. Then, P. carinii organisms were collected and quantified after RAL-555 panoptic staining. In parallel with these free-drug growth control wells, the anti-Pneumocystis effect of pentamidine and the other bisbenzamidines considered in this study was investigated in the same conditions. All molecules have been screened at a high (50 µg/mL), a medium (10 µg/mL), and a low (0.1 µg/mL) concentration. All experiments were performed in triplicate and data were statistically processed using Student’s t-test. Two-sided p-values < 0.05 were deemed to be statistically significant.
The parameters of this pharmacodynamic model were calculated by nonlinear least-squares regression techniques using commercial software (Sigma Plot, Systat Software Inc., San Jose, CA, USA).

Data set [5] has as its system 3T6 fibroblast cell line. Nature of the data set: In vitro cytotoxicity, MTT-based cell viability assay. The conditions noted are these: for Cytotoxicity: 3T6 cell line; for IC50 fold higher than for the reference compound (pentamidine): 3T6 cytotoxicity. Also on record: species or system murine. The protocol:
as §1, §2

On the set-up of data set [6]: method as in PMID 21147326. The conditions noted are these: in comparison with pentamidine and the diamidine 6; cited from earlier work.
Setting [7] is: Hill equation, 4 days of culture.

Counter-ions that a name gives are not always drawn.

Molecule `CN(CCNc1ccccc1)c1ccc(C(=N)N)cc1` (as salt: hydrochloride) [Compound 9, N-(Benzamidine-4-yl)-N-methyl-N′-phenylethane-1,2-diamine hydrochloride salt] displayed a melting point of 212 to 215 °C.

As to `N=C(N)c1ccc(NCCNc2ccccc2)cc1` (as salt: sulfate) [Compound 7, N-(Benzamidine-4-yl)-N′-phenylethane-1,2-diamine sulfate salt], the melting point is 191 to 193 °C.

In data set [1], `N=C(N)c1ccc(OCCCCCOc2ccc(C(=N)N)cc2)cc1` [Compound 1, pentamidine, reference compound] returned an IC50 of 1.98 ± 0.2 µM. The “% of inhibition versus control rats” value in data set [2] (5 mg/kg/day subcutaneous) was 84.6%. Further, the “% of inhibition versus control rats” value in data set [2] (20 mg/kg/day subcutaneous) came to 95.3%. In data set [3], the “Cutaneous reaction at the site of injections” value is reported as “deleterious wounds could be seen on the skin”. Also, in data set [4] (setting [7]), the “Slope S (steepness of the concentration-effect curve)” value (“Slope S” for short) was determined as 1.09 ± 0.23 and the concentration for a half-maximal effect (EC50) amounted to 0.08 ± 0.01 µM. Besides, in data set [4], the inhibition of growth at 50 µg/mL amounted to 99 ± 0.1%, the inhibition of growth at 0.1 µg/mL was found to be 89% and the inhibition of growth at 10 µg/mL is 99 ± 0.1%.

In the case of `N=C(N)c1ccc(N2CCN(c3ccccc3)CC2)cc1` [Compound 3], the IC50 in data set [1] amounted to 56.06 ± 0.39 µM. For the same molecule, in data set [4], the inhibition of growth at 50 µg/mL came to 99 ± 0.1%, the inhibition of growth at 0.1 µg/mL turned out to be 8.3 ± 14.4% and the inhibition of growth at 10 µg/mL was 99 ± 0.1%.

In data set [1], `Nc1ccc(N2CCN(c3ccc(N)cc3)CC2)cc1` [Compound 4] yielded a half-inhibitory concentration (IC50) of 40.8 ± 4.4 µM. Further, in data set [4], the “Anti-Pneumocystis activity % inhibition vs. free-drug control at 0.1 µg/mL” value was “inactive”, the “Anti-Pneumocystis activity % inhibition vs. free-drug control at 10 µg/mL” value is “inactive” and the “Anti-Pneumocystis activity % inhibition vs. free-drug control at 50 µg/mL” value is “inactive”.

Molecule `Nc1ccc(N2CCN(c3ccccc3)CC2)cc1` [Compound 5, 1-(4-Aminophenyl)-4-phenylpiperazine] yielded a melting point of 146 to 149 °C. In data set [1], this molecule returned a half-maximal inhibitory concentration (IC50) of 10.2 ± 0.6 µM. Further, in data set [4], the “Anti-Pneumocystis activity % inhibition vs. free-drug control at 0.1 µg/mL” value was “inactive”, the “Anti-Pneumocystis activity % inhibition vs. free-drug control at 10 µg/mL” value is “inactive” and the “Anti-Pneumocystis activity % inhibition vs. free-drug control at 50 µg/mL” value was “inactive”.

Turning to `N=C(N)c1ccc(NCCNc2ccc(C(=N)N)cc2)cc1` [Compound 6, N,N′-bis(benzamidine-4-yl)ethane-1,2-diamine], in data set [1], it took 30.2 ± 1.14 µM to reach half-maximal inhibition (IC50). Besides, in data set [5], the “Cytotoxicity” value is listed as “no cytotoxicity” and the “IC50 fold higher than for the reference compound (pentamidine)” value amounted to 15 fold. Besides, the “% of inhibition versus control rats” value in data set [2] (5 mg/kg/day subcutaneous) is recorded as 78.4%. Besides, the “% of inhibition versus control rats” value in data set [2] (20 mg/kg/day subcutaneous) is reported as 86.2%. Besides, the “In vivo anti-Pneumocystis activity” value in data set [2] was “strong anti-Pneumocystis activity comparable to that of pentamidine at both doses”. In addition, in data set [3], the “Cutaneous reaction at the site of injections” value is recorded as “did not develop any cutaneous reaction”. For the same molecule, the “Behavior during the treatment” value in data set [3] (visual observations) is recorded as “quite normal behavior”. For the same molecule, in data set [4] (setting [7]), the “Slope S” value was determined as 1.49 ± 0.31 and the half-maximal effective concentration (EC50) turned out to be 0.6 ± 0.12 µM. In addition, in data set [4], the inhibition of growth at 50 µg/mL worked out at 98.7 ± 0.6%, the inhibition of growth at 0.1 µg/mL is 29.8 ± 19.7% and the inhibition of growth at 10 µg/mL amounted to 97.7 ± 0.6%.

In data set [1], `N=C(N)c1ccc(NCCNc2ccccc2)cc1` [Compound 7, N-(Benzamidine-4-yl)-N′-phenylethane-1,2-diamine sulfate salt] showed an IC50 of 40.6 ± 1.3 µM. In addition, in data set [5], the “Cytotoxicity” value was “no cytotoxicity” and the “IC50 fold higher than for the reference compound (pentamidine)” value is listed as 20 fold. In data set [2] (5 mg/kg/day subcutaneous), the “% of inhibition versus control rats” value came to 43.1%. In addition, the “% of inhibition versus control rats” value in data set [2] (20 mg/kg/day subcutaneous) stood at 54.3%. In data set [2], the “In vivo anti-Pneumocystis activity” value is “poorly potent”. In data set [6], the “Elimination from plasma” value is listed as “more rapidly eliminated from plasma”. For the same molecule, in data set [4] (setting [7]), the “Slope S” value came out at 2.00 ± 0.54 and the EC50 was 0.4 ± 0.08 µM. In data set [4] (Hill equation, maximum effect, 4 days of culture), this molecule showed a maximal effect (Emax) of 99.37 ± 2.54%. In data set [4], the inhibition of growth at 50 µg/mL was determined as 99.5 ± 0.4%, the inhibition of growth at 0.1 µg/mL came to 42 ± 12.5% and the inhibition of growth at 10 µg/mL came to 98.7 ± 0.6%.

Molecule `CN(CCNc1ccc(C(=N)N)cc1)c1ccc(C(=N)N)cc1` [Compound 8] had a half-inhibitory concentration (IC50) in data set [1] of 2.48 ± 0.35 µM. The “Cytotoxicity” value in data set [5] was “cytotoxicity similar to that of pentamidine”. For the same molecule, in data set [4], the inhibition of growth at 50 µg/mL stood at 99%, the inhibition of growth at 0.1 µg/mL was found to be 15 ± 12.5% and the inhibition of growth at 10 µg/mL was found to be 99%.

`CN(CCNc1ccccc1)c1ccc(C(=N)N)cc1` [Compound 9, N-(Benzamidine-4-yl)-N-methyl-N′-phenylethane-1,2-diamine hydrochloride salt]: the IC50 in data set [1] came out at 3.11 ± 0.09 µM. In data set [5], the “Cytotoxicity” value is “cytotoxicity similar to that of pentamidine”. In addition, in data set [4], the “Anti-Pneumocystis activity % inhibition vs. free-drug control at 0.1 µg/mL” value was “inactive”, the inhibition of growth at 50 µg/mL came to 88.7 ± 2.5% and the inhibition of growth at 10 µg/mL stood at 86.3 ± 4%.

Broadly, the melting point is the temperature, or range, at which the solid turns liquid. What is called IC50 is the midpoint of a concentration-inhibition curve. Low readings indicate higher potency, high ones lower potency. Broadly, the EC50 is the concentration giving half of the maximal effect. A word on the Emax: it is the maximal effect, on the per cent scale that the assay sets.
